# Values of other authors as cited in patent US7563785B2, “Quetiapine analogs and methods of use thereof” (Hypnion, Inc., priority 2004, dated 2009).
# Target: T1, human recombinant M1 expressed in CHO cells (Homo sapiens, UniProt P11229)
# T1 construct: purchased PerkinElmer, Inc., Wellesley, Mass; host or cells: CHO cells
# T1 sequence (P11229 1-460): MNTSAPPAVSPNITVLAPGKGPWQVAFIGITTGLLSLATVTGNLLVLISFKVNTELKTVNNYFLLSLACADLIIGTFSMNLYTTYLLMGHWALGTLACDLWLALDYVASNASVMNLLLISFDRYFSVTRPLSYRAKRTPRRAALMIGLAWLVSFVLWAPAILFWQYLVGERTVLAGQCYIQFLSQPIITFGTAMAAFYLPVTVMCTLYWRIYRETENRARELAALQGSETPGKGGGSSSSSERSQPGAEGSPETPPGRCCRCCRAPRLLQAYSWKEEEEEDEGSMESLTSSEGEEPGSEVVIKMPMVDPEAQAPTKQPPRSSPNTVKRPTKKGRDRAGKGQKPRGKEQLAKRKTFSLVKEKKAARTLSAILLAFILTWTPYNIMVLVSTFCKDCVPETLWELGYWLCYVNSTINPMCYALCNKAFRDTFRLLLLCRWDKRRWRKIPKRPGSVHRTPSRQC
# Conditions: reference compounds; read-out: Ki of reference compounds in M1 binding assay
structure (smiles),measurement,value
C[N+]1(C)CCC(OC(=O)C(c2ccccc2)c2ccccc2)CC1 [4-DAMP methiodide],Ki,0.27 nM
